According to US9238654B2, “Singleton inhibitors of sumoylation enzymes and methods for their use” (CITY OF HOPE, priority 2010, dated 2016):
Read-outs that look alike come from different tables or passages of the source.

How the values were obtained:
[1] = target: T1, SUMO E1 (Homo sapiens, UniProt Q9UBE0+Q9UBT2); test: Gel-based assay of SUMO-RanGap1, E1-SUMO and E2~SUMO thioester conjugate formation; assay type: biochemical; settings: for Inhibitory effect on SUMOylation, comparison within the series: HTS and gel-based format, each inhibitor 10 μM (FIG. 4); for SUMO-RanGap1 and SUMO-E2 Conjugation Inhibition: strength in words
T1 sequence (Q9UBE0 1-346): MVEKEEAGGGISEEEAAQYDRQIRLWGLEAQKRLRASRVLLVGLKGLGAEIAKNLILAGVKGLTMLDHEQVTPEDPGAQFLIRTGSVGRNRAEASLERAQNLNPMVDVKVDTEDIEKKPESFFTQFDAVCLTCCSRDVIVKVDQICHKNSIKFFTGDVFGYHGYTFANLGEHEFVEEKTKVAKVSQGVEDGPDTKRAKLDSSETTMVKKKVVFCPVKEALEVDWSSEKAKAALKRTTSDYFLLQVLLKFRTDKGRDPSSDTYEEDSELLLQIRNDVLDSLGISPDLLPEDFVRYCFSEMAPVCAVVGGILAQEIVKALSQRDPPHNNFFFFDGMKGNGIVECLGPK
T1 sequence (Q9UBT2 1-640): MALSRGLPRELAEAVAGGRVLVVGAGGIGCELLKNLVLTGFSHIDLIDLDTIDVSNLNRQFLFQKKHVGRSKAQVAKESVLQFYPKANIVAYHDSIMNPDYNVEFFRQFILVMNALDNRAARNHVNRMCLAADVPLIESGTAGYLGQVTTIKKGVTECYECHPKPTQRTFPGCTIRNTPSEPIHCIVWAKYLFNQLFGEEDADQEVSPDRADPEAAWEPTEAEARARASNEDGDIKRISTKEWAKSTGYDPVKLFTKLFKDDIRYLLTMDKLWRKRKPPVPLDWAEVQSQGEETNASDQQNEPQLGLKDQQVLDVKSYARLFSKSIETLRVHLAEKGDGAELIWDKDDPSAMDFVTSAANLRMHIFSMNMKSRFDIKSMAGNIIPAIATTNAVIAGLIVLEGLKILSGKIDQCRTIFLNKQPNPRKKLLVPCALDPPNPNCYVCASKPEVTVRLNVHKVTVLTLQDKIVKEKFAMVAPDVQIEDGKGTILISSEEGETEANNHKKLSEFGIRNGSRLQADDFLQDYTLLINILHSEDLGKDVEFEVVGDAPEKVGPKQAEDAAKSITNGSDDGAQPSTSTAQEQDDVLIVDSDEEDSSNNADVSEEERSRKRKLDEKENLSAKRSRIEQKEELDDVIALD
Description: FIG. 4 illustrates a representative assay to determine the efficacy of E1 inhibitors generated from a singleton probe. Stereo-specific effects of this series in inhibiting the SUMO E1. […] Negative and positive controls were reactions in the absence and presence of ATP. […] The compounds that are immediately right to them in the assays, MLS-0437114 and MLS-0437121, are their stereo-isomers, respectively. The stereo chemistry was determined by X-ray crystallography.
(§1) Each singleton analog was analyzed to determine its inhibitory effect on SUMOylation and ubiquitination, tested both in the HTS format and gel-based format (FIG. 4).
The molecular weight (MW), IC50, strength of SUMO-RanGap1 and SUMO-E2 conjugation inhibition of the SUMO E1 inhibitors derived from the singleton scaffold (see Table 1 above for structures) generated according to the embodiments herein are shown in Table 3 below.

[2] = target: T2, SUMO E1 or SUMO E2 (Homo sapiens, UniProt Q9UBE0+Q9UBT2); test: SUMOylation HTS assay, SUMO (AlphaScreen-BSA), SUMOylation of RanGAP1; assay type: biochemical
T2 sequence (Q9UBE0 1-346): T1 sequence (Q9UBE0 1-346)
T2 sequence (Q9UBT2 1-640): T1 sequence (Q9UBT2 1-640)
Description: (§2) A lead compound was selected, and is identified herein as MLS0437113 (FIG. 3).
as §1

[3] = Stability in Tris buffer, parent remaining by HPLC-MS; assay type: physicochemical; settings: for % Remaining after 60 min in 50 mM Tris (−BSA): without BSA; for % Remaining after 60 min in 50 mM Tris (+BSA): with BSA
Description: Stable compounds in Tris were tested with and without BSA. Amount of parent compound remaining was quantified using HPLC-MS (area under the curve (AUC) method).

[4] = tested on: Immortalized human hepatocytes, Fa2N-4 cells; test: Hepatocyte toxicity, cell viability by cellular ATP levels; assay type: cell-based; settings: concentrations up to 50 μM, 24 hrs
Description: FIG. 10 illustrates that E1 inhibitor MLS-0437113 has low toxicity in a normal liver cell line. Immortalized human hepatocytes, Fa2N-4 cells (XenoTech) were seeded at ˜50-60K cells/well, and incubated with a range of concentrations (0.01-50 μM) 1, in duplicate, for 24 hrs at 37° C., 5% CO2. Cell viability was determined by cellular ATP levels using the Luminescence ATP Detection Assay System (Tecan).

[5] = target: T1, SUMO E1; test: Rate of SUMO~E1 product formation with increasing inhibitor concentrations; assay type: biochemical
Description: Data is analyzed by fitting to a rectangular hyperbolic to extract IC50 (lower left) or the solution to a quadratic equation to determine Ki^app (lower right).
Their inhibitory constants were measured in the reaction to monitor the rate of SUMO˜E1 product formation in the presence of increasing concentrations of inhibitors (FIG. 5). Inhibition studies were performed in both the presence and absence of 0.02% Triton X-100 to ensure against potential promiscuous inhibition by premicelles due to the formation of aggregates. Inhibition data was fit to a rectangular hyperbolic to extract an IC50 (Equation 1). The Ki^app was extracted by fitting the percent inhibition as a function of inhibitor concentration using equations 1 and 2 (FIG. 5) (Spengler et al. 2005). % Inhibition=([I]*Vmax)/([I]+IC50) (Equation 1) v/v0=(1−(([E]0+[I]+Ki^app)−(([E]0+[I]+Ki^app)^2−4([E]0[I]))^1/2)/2[E]0 (Equation 2)

[6] = target: T3, ubiquitin E1 (Homo sapiens, UniProt P22314); test: Poly-ubiquitination assay using ubiquitin, ubiquitin E1, Ubc5 and Apc11; assay type: biochemical; settings: SUMO E1 versus ubiquitin E1, derived from the IC50s of HTS assays
T3 sequence (P22314 1-1058): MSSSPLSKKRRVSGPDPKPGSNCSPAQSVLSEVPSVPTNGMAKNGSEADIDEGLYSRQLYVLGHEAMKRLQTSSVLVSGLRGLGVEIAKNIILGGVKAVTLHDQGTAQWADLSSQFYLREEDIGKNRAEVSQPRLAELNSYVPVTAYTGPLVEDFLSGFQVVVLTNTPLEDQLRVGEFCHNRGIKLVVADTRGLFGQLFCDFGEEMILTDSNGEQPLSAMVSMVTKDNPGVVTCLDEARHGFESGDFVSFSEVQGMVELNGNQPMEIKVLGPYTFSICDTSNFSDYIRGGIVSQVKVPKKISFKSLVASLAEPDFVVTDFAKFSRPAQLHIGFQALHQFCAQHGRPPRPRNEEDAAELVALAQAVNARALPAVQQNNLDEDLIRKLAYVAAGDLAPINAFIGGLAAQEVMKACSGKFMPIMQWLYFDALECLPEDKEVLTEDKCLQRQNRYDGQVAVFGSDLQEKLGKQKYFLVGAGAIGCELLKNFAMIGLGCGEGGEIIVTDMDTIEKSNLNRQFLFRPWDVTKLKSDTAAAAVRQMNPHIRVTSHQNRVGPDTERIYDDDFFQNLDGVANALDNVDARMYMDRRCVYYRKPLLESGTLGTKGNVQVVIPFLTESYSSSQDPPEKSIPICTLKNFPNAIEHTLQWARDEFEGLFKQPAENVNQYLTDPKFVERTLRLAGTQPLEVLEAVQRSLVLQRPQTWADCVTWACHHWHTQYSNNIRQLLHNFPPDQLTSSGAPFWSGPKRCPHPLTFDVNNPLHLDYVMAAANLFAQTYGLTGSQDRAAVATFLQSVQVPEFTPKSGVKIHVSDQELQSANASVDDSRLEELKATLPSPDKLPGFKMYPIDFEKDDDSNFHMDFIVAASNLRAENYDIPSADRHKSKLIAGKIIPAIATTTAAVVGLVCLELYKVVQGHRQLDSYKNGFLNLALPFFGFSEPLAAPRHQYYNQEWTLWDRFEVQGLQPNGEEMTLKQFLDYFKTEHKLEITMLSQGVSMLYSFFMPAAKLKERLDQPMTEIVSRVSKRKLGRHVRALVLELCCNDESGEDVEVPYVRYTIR
Description: as §2, §1

[7] = tested on: MCF-7 cells; test: Inhibition of global SUMOylation in cells, Western blot with anti-SUMO antibodies; assay type: cell-based; settings: compound in culture media 8-18 h
Description: Western blots (probed with anti-SUMO2/3 antibodies) of cell lysates from MCF-7 cells treated with the inhibitor. SUMO2/3 modifies many proteins as poly-SUMO chains, and is detected as high molecular weight smears.
In this experiment, the compound was added to cell culture media at the indicated concentrations for 8-18 h. Then SUMOylated proteins were detected using anti-SUMO antibodies.

Compound	SUMO-RanGap1 and SUMO-E2 Conjugation Inhibition [1]	SUMO (AlphaScreen-BSA) IC50 [2]	% Remaining after 60 min in 50 mM Tris (−BSA) [3]	further results
COC(=O)C1=C(C(=O)OC)C2([C@H](Cc3ccccc3)Nc3ccc(Cl)cc3)C=CC1O2 (mixture of isomers) [MLS-0437121]	Very Weak	9.2 µM		
CCC[C@H](Nc1ccccc1)C12C=C[C@H](O1)C(C(=O)OC)=C2C(=O)OC (stereo in doubt) [MLS-0437313]			48%	SUMO/ubiquitin Selectivity [6]: >100; % Remaining after 60 min in 50 mM Tris (+BSA) [3]: 89%
COC(=O)C1=C(C(=O)OC)C2([C@@H](Nc3ccccc3)c3ccc(C)cc3)C=C[C@@H]1O2 (stereo in doubt) [MLS-0437317]			86%	SUMO/ubiquitin Selectivity [6]: >100; Inhibition of global SUMOylation [7]: inhibited global SUMOylation in a dose-dependent manner; % Remaining after 60 min in 50 mM Tris (+BSA) [3]: 85%; Stability in Tris buffer, in words [3]: stable; Inhibition of SUMO E1, potency in words [5]: high potency
COC(=O)C1=C(C(=O)OC)C2([C@@H](Cc3ccccc3)Nc3ccc(C)cc3)C=CC1O2 (some centres unmarked) [MLS-0437109]	Weak	6.9 µM		
COC(=O)C1=C(C(=O)OC)C2([C@H](Cc3ccccc3)Nc3ccc(C)cc3)C=CC1O2 (some centres unmarked) [MLS-0437110]	Very Weak	9.2 µM		
C=CC[C@@H](Nc1ccccc1)C12C=CC(O1)C(C(=O)OC)=C2C(=O)OC (some centres unmarked) [MLS-0437111]	Strong	3.3 µM		
C=CC[C@@H](Nc1ccc(Cl)cc1)C12C=CC(O1)C(C(=O)OC)=C2C(=O)OC (some centres unmarked) [MLS-0437126]	Weak	12.5 µM		
COC(=O)C1=C(C(=O)OC)C2(C(Nc3ccccc3)c3ccc(F)cc3)C=C[C@@H]1O2 (some centres unmarked) [MLS-0437320]			84%	SUMO/ubiquitin Selectivity [6]: >100; % Remaining after 60 min in 50 mM Tris (+BSA) [3]: 87%
COC(=O)C1=C(C(=O)OC)C2(C(Nc3ccccc3)c3ccc(OC(F)(F)F)cc3)C=C[C@@H]1O2 (some centres unmarked) [MLS-0437321]			82%	SUMO/ubiquitin Selectivity [6]: >100; % Remaining after 60 min in 50 mM Tris (+BSA) [3]: 64%

The next lines start with results.

SUMO-RanGap1 and SUMO-E2 Conjugation Inhibition [1]	SUMO (AlphaScreen-BSA) IC50 [2]	% Remaining after 60 min in 50 mM Tris (−BSA) [3]	Compound	further results
Strong	0.47 µM	0%	COC(=O)C1=C(C(=O)OC)[C@@]2([C@@H](Cc3ccccc3)Nc3ccccc3)C=C[C@@H]1O2 (racemic) [MLS-0437113, Dimethyl 1-(2-Phenyl-1-(phenylamino)ethyl)-7-oxabicyclo[2.2.1]hepta-2,5-diene-2,3-dicarboxylate]	Inhibitory effect on SUMOylation, comparison within the series [1]: most potent inhibitor in this series; Stability in Tris buffer, in words [3]: unstable; Toxicity in human hepatocytes [4]: low toxicity; Inhibition of SUMO E1, potency in words [5]: similarly potent; Inhibition of SUMO E1, potency in words ([5]; listed as MLS0437113): submicromolar inhibition
Weak	11.7 µM		COC(=O)C1=C(C(=O)OC)C2([C@H](Cc3ccccc3)Nc3ccccc3)C=CC1O2 (mixture of isomers) [MLS-0437114]	Inhibitory effect on SUMOylation, comparison within the series [1]: significantly less inhibitory
Weak	5.2 µM	29%	COC(=O)C1=C(C(=O)OC)C2([C@@H](Cc3ccccc3)Nc3ccc(Cl)cc3)C=CC1O2 (mixture of isomers) [MLS-0437120]	Inhibitory effect on SUMOylation, comparison within the series [1]: more inhibitory than MLS-0437121
Very Weak	9.5 µM		COC(=O)C1=C(C(=O)OC)C2([C@@H](Cc3ccccc3)Nc3ccc(OC)cc3)C=CC1O2 (some centres unmarked) [MLS-0437118]	
Weak	11.5 µM		C=CC[C@H](Nc1ccc(Cl)cc1)C12C=CC(O1)C(C(=O)OC)=C2C(=O)OC (some centres unmarked) [MLS-0437127]	
